Experimental data published in ChEMBL document CHEMBL1201862, “PubChem BioAssay data set” (2004).
Active and inactive are the calls of the source. Rule as the data show it: actives have a measured IC50 and inactives only a lower limit.

Biological target: Envelope glycoprotein gp160 (Human immunodeficiency virus 1, UniProt Q6QLK5)
Assay: inhibitors of HIV fusion peptide binding, primary screen, biochemical, uHTS, fluorescence dequenching (AID 1986)

Envelope glycoprotein gp160, sequence (Q6QLK5 whole entry, the tested form may be a part): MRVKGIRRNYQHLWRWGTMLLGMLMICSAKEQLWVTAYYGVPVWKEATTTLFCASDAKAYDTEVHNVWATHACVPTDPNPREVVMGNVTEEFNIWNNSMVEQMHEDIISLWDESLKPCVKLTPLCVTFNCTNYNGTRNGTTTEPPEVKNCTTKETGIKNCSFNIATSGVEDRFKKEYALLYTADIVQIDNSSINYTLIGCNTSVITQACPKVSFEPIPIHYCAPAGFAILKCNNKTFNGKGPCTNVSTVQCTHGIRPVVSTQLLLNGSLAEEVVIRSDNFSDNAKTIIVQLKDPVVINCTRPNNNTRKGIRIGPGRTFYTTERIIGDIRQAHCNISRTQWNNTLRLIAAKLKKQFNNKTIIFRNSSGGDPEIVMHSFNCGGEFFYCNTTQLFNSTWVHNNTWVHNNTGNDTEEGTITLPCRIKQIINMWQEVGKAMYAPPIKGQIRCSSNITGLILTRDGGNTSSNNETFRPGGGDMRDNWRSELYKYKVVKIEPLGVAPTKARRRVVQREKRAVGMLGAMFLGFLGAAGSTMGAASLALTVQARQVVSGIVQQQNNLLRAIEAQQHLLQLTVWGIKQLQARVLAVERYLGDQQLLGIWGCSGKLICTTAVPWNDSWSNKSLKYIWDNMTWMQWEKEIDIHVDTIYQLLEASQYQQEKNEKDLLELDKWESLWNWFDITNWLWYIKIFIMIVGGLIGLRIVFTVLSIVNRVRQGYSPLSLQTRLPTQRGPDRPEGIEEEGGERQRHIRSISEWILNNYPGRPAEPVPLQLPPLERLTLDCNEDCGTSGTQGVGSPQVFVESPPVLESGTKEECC

Cc1c2c(=O)n(-c3nc4ccccc4s3)nc-2cc(O)n1Cc1ccccc1
IC50: 13.8 µM (active)

CCn1nc([N+](=O)[O-])c(C(C#N)c2nc3cc(C(F)(F)F)ccc3s2)c(Cl)c1=O (stereo not drawn)
IC50: 14.9 µM (active)

CC(c1ccccc1)N1C(=O)c2ccc(C(=O)Nc3ccccc3C(=O)O)cc2C1=O (stereo not drawn)
IC50: 19.3 µM (active)
